Test results reported in patent US20120149625A1, “Detergent Composition” (Novozymes A/S, priority 2009, published 2012).
Where two headings read alike, the source gives them in different places. Residues, ends and D or L forms follow the SMILES beside them. *: point of attachment. Cbz = O=C(OCc1ccccc1)*

Assays:
Savinase [1] = target: T1, Savinase (Lederbergia lenta, UniProt P29600); assay: Washing test with protease and inhibitor at various molar ratios (Example 4); settings: 20° C., 15° dH
T1 sequence (P29600 1-269): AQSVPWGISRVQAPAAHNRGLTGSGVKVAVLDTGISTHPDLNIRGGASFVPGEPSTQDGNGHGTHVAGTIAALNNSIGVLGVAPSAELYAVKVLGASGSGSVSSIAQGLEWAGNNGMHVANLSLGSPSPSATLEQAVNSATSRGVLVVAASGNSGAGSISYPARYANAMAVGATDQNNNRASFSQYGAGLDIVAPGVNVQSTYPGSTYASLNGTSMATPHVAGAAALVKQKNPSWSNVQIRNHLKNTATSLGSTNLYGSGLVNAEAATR
Experimental: Washing tests were made in detergents with a protease and an inhibitor. Washing conditions were 20 minutes washing at 20° C. and 15° dH. […] The inhibitor was inhibitor Z-GAY-H at various molar ratios. The results are shown as detergency with the inhibitor relative to detergency at the same conditions without the inhibitor:
The detergent was a powder detergent with the following composition at 2.5 g/L.
20.05 g Na-citrate dehydrate
The liquid detergent described under the AMSA assay was used.
The powder detergent described under the AMSA assay was used.

Savinase [2] = target: T1, Savinase; assay: AMSA laundry detergency, powder detergent, various inhibitors (Example 1); settings: 30 nM protease, 40° C., 15° dH
Savinase variant S99SE = Savinase variant S99SE (Lederbergia lenta, UniProt P29600, INS97E); settings: Powder Detergent 2 at 2.5 g/L, 30 nM Savinase variant S99SE, 20° C., 15° dH
Alcalase [3] = target: T2, Alcalase (Bacillus licheniformis, UniProt P00780); assay: AMSA laundry detergency, powder detergent, various inhibitors (Example 1); settings: 30 nM protease, 40° C., 15° dH, inhibitor dosage 5, None = 100%
T2 construct: purchased Novozymes A/S
T2 sequence (P00780 106-379): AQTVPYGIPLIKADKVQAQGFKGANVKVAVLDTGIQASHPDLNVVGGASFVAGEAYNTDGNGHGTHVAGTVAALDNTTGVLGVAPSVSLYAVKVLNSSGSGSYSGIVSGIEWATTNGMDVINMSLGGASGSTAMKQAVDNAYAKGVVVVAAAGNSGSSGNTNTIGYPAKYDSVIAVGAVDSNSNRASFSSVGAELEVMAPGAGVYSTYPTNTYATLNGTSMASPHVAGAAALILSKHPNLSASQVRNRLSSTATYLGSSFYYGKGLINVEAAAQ

Savinase [4] = target: T1, Savinase; assay: AMSA laundry detergency, laundry liquid model detergent, various inhibitors (Example 2); settings: 30 nM Savinase, 20° C., 15° dH, inhibitor dosering 5, None = 100%
Experimental: Model detergents and test materials for laundry were as follows:
After washing the textiles were flushed in tap water and dried.
Detergency was determined with various inhibitors in the laundry liquid model detergent with 30 nM protease (Savinase). Washing was done at 20° C. and water hardness 15° dH with test swatches EMPA117EH.

Alcalase [5] = target: T2, Alcalase; assay: Washing test with protease and inhibitor at various molar ratios (Example 4); settings: 30 nM Alcalase, 20° C., 15° dH
Protease 10R = assay: Washing test in commercial liquid detergents (Example 4); settings: Liquid detergent Commercial 1; inhibitor:protease molar ratio 5:1; 20 min, 20° C., 15° dH
Experimental: (§1) Washing tests were made in detergents with a protease and an inhibitor. Washing conditions were 20 minutes washing at 20° C. and 15° dH. The protease was Savinase at 30 nM. The inhibitor was inhibitor Z-GAY-H at various molar ratios. The results are shown as detergency with the inhibitor relative to detergency at the same conditions without the inhibitor:
(§2) Two commercial liquid detergents purchased in England were tested with inhibitor:protease molar ratio of 5:1. Protease 10R is described in WO 88/03947. Protease PD138 is described in […]

Protease PD138 = assay: as above; settings: Liquid detergent Commercial 1; inhibitor:protease molar ratio 5:1; 20 min, 20° C., 15° dH
Experimental: as §1, §2

Savinase [6] = target: T1, Savinase; assay: biochemical; settings: substrate SucAAPF-pNA, 0,1M TRIS pH 9.0, 25° C., [E]0=6E-09 M, read-out: inhibition constant Ki
[7] = target: Savinase variant Y167A + R170S + A194P (Lederbergia lenta, UniProt P29600, A188P/R164S/Y161A); settings: Powder Detergent 2 at 2.5 g/L, 30 nM Savinase variant Y167A + R170S + A194P, 20° C., 15° dH
[8] = inhibitor:protease molar ratio 5, None = 100%
[9] = inhibitor:protease molar ratio 500, None = 100%
[10] = molar ratio not given, None = 100%

Sequence of Savinase variant Y167A + R170S + A194P (P29600 whole entry Y161A/R164S/A188P): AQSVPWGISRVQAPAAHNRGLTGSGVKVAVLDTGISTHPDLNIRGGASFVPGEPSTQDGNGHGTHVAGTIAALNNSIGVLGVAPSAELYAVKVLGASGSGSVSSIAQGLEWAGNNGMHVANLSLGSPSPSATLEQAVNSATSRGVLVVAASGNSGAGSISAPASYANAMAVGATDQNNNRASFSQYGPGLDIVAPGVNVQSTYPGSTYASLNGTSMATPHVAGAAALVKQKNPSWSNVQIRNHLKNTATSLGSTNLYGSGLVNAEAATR
Sequence of Savinase variant S99SE (P29600 other isoform, or with tags, fused parts or gaps INS97E): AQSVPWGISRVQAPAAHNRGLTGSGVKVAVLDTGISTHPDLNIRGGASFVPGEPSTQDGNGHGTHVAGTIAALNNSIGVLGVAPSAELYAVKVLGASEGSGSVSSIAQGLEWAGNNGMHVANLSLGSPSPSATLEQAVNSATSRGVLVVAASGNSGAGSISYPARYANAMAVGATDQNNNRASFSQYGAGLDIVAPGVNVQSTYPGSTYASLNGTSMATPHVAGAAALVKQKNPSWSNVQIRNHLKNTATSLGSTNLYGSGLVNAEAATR

SMILES: C[C@H](NC(=O)CNC(=O)OCc1ccccc1)C(=O)N[C@H](C=O)Cc1ccc(O)cc1 [Z-GAY-H] (Cbz-Gly-Ala-Tyr-aldehyde)
- detergency with the inhibitor relative to without (Savinase [1]; Liquid Detergent (AMSA model), 30 nM Savinase, molar ratio 1.5): 114%
- detergency with the inhibitor relative to without (Savinase [1]; Liquid Detergent (AMSA model), 30 nM Savinase, molar ratio 3): 109%
- detergency with the inhibitor relative to without (Savinase [1]; Liquid Detergent (AMSA model), 30 nM Savinase, molar ratio 5): 108%
- detergency with the inhibitor relative to without (Savinase [1]; Powder Detergent 1 (AMSA model), 10 nM Savinase, molar ratio 0.5): 112%
- detergency with the inhibitor relative to without (Savinase [1]; Powder Detergent 1 (AMSA model), 10 nM Savinase, molar ratio 1): 108%
- detergency with the inhibitor relative to without (Savinase [1]; Powder Detergent 1 (AMSA model), 10 nM Savinase, molar ratio 1.5): 111%
- detergency with the inhibitor relative to without (Savinase [1]; Powder Detergent 1 (AMSA model), 10 nM Savinase, molar ratio 2): 121%
- detergency with the inhibitor relative to without (Savinase [1]; Powder Detergent 1 (AMSA model), 10 nM Savinase, molar ratio 3): 118%
- detergency with the inhibitor relative to without (Savinase [1]; Powder Detergent 1 (AMSA model), 10 nM Savinase, molar ratio 5): 118%
- detergency with the inhibitor relative to without (Savinase [1]; Powder Detergent 1 (AMSA model), 10 nM Savinase, molar ratio 10): 122%
- detergency with the inhibitor relative to without (Savinase [1]; Powder Detergent 1 (AMSA model), 10 nM Savinase, molar ratio 15): 116%
- detergency with the inhibitor relative to without (Savinase [1]; Powder Detergent 1 (AMSA model), 10 nM Savinase, molar ratio 20): 104%
- detergency with the inhibitor relative to without (Savinase [1]; Powder Detergent 1 (AMSA model), 10 nM Savinase, molar ratio 30): 101%
- detergency with the inhibitor relative to without (Savinase [1]; Powder Detergent 1 (AMSA model), 10 nM Savinase, molar ratio 50): 95%
- detergency with the inhibitor relative to without (Savinase [1]; Powder Detergent 1 (AMSA model), 30 nM Savinase, molar ratio 0.5): 106%
- detergency with the inhibitor relative to without (Savinase [1]; Powder Detergent 1 (AMSA model), 30 nM Savinase, molar ratio 1): 105%
- detergency with the inhibitor relative to without (Savinase [1]; Powder Detergent 1 (AMSA model), 30 nM Savinase, molar ratio 1.5): 107%
- detergency with the inhibitor relative to without (Savinase [1]; Powder Detergent 1 (AMSA model), 30 nM Savinase, molar ratio 2): 108%
- detergency with the inhibitor relative to without (Savinase [1]; Powder Detergent 1 (AMSA model), 30 nM Savinase, molar ratio 3): 105%
- detergency with the inhibitor relative to without (Savinase [1]; Powder Detergent 1 (AMSA model), 30 nM Savinase, molar ratio 5): 110%
- detergency with the inhibitor relative to without (Savinase [1]; Powder Detergent 1 (AMSA model), 30 nM Savinase, molar ratio 10): 107%
- detergency with the inhibitor relative to without (Savinase [1]; Powder Detergent 1 (AMSA model), 30 nM Savinase, molar ratio 15): 99%
- detergency with the inhibitor relative to without (Savinase [1]; Powder Detergent 1 (AMSA model), 30 nM Savinase, molar ratio 20): 95%
- detergency with the inhibitor relative to without (Savinase [1]; Powder Detergent 1 (AMSA model), 30 nM Savinase, molar ratio 30): 83%
- detergency with the inhibitor relative to without (Savinase [1]; Powder Detergent 1 (AMSA model), 30 nM Savinase, molar ratio 50): 80%
- detergency with the inhibitor relative to without (Savinase [1]; Powder Detergent 2 at 2.5 g/L, 30 nM Savinase, molar ratio 1.5): 132%
- detergency with the inhibitor relative to without (Savinase [1]; Powder Detergent 2 at 2.5 g/L, 30 nM Savinase, molar ratio 3): 140%
- detergency with the inhibitor relative to without (Savinase [1]; Powder Detergent 2 at 2.5 g/L, 30 nM Savinase, molar ratio 5): 134%
- CS-37 % performance (Savinase [2]; [8]): 242%
- EMPA117EH % performance (Savinase [2]; [8]): 117%
- detergency with the inhibitor relative to without (Savinase variant S99SE; molar ratio 1.5): 100%
- detergency with the inhibitor relative to without (Savinase variant S99SE; molar ratio 3): 103%
- detergency with the inhibitor relative to without (Savinase variant S99SE; molar ratio 5): 106%
- CS-37 % performance (Alcalase [3]): 147%
- EMPA117EH % performance (Alcalase [3]): 108%
- EMPA117EH % performance increase (Savinase [4]): 114%
- detergency with the inhibitor relative to without (Alcalase [5]; Liquid Detergent (AMSA model), molar ratio 1.5): 145%
- detergency with the inhibitor relative to without (Alcalase [5]; Liquid Detergent (AMSA model), molar ratio 3): 169%
- detergency with the inhibitor relative to without (Alcalase [5]; Liquid Detergent (AMSA model), molar ratio 5): 146%
- detergency with the inhibitor relative to without (Alcalase [5]; Liquid Detergent (AMSA model), molar ratio 7.5): 149%
- detergency with the inhibitor relative to without (Alcalase [5]; Liquid Detergent (AMSA model), molar ratio 10): 147%
- detergency with the inhibitor relative to without (Alcalase [5]; Powder Detergent 2 at 2.5 g/L, molar ratio 3): 103%
- detergency with the inhibitor relative to without (Alcalase [5]; Powder Detergent 2 at 2.5 g/L, molar ratio 5): 113%
- detergency with the inhibitor relative to without (Alcalase [5]; Powder Detergent 2 at 2.5 g/L, molar ratio 7.5): 116%
- detergency with the inhibitor relative to without (Alcalase [5]; Powder Detergent 2 at 2.5 g/L, molar ratio 10): 119%
- Detergency increase (Protease 10R): 107%
- Detergency increase (Protease PD138): 107%
- Ki (Savinase [6]): 7.4 nM
- detergency with the inhibitor relative to without ([7]; molar ratio 1.5): 100%
- detergency with the inhibitor relative to without ([7]; molar ratio 3): 107%
- detergency with the inhibitor relative to without ([7]; molar ratio 5): 107%

SMILES: O=Cc1ccc(B(O)O)cc1 [Inhibitor 4-FPBA, 4-formyl-phenyl-boronic acid]
- CS-37 % performance (Savinase [2]; [9]): 128%
- EMPA117EH % performance (Savinase [2]; [9]): 107%
- CS-37 % performance (Savinase [2]; [10]): 137%
- EMPA117EH % performance (Savinase [2]; [10]): 111%
